Results on 28 molecules are retold here after PubChem BioAssay (NCI).

What all share (test): inhibition of tumour cell growth, NCI panel, 48 h
Assay [1] has as its system EKVX NSCLC.
Assay [2] has as its system MDA-MB-435.
Assay [3] relates to HS 578T breast.
The test system of assay [4] is CCRF-CEM leukemia.
The subject of assay [5] is SW-620 colon.
Assay [6] concerns SK-MEL-28 melanoma.
Assay [7] deals with ACHN renal.
Assay [8] deals with UO-31 renal.
Assay [9] relates to OVCAR-3 ovarian.
The subject of assay [10] is MCF7 breast.

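These data come from cells grown in 96-well plates and exposed to compound for 48 hours at five concentrations. The concentration for full growth arrest is given as TGI.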

`Cc1nnc(NS(=O)(=O)c2ccc(N=Nc3c(O)c(C(=O)O)cc4ccccc34)cc2)s1`: the TGI in assay [1], in assay [2], in [3], in assay [4], in assay [5] and in assay [6] was over 100 µM in each case. The TGI in assay [7], in assay [8], in [9] and in [10] was over 100 µM throughout.

Take `CC(=O)C1=C(C)N2C(=NC3=C(CCc4ccccc43)C2c2ccc(Cl)cc2)S1` (stereo not drawn): the TGI in assay [1] was over 100 µM; in assay [2] it was over 100 µM; in [3] it was over 100 µM; in [4], over 96.6 µM; in assay [5], over 100 µM; in assay [6] it was over 100 µM. Moreover, the TGI in assay [7], in [8], in assay [9] and in assay [10] was over 100 µM each time.

Consider `O=C(c1ccccc1)N1N=C(C(F)(F)F)CC1(O)C(F)(F)F` (stereo not drawn), for which the TGI in assay [1], in assay [2], in [3], in assay [4], in assay [5] and in assay [6] was over 100 µM in each case. Further, the TGI in assay [7], in [8], in assay [9] and in assay [10] was over 100 µM each time.

Turning to `CC(=O)OC1=C(c2ccccc2)S(=O)(=O)c2ccccc21`, the TGI in [1], in assay [2], in [3], in [4], in assay [5] and in assay [6] was over 100 µM in each case. Also, the TGI in assay [7], in assay [8], in [9] and in assay [10] was over 100 µM each time.

In the case of `CC(=O)OC(C(=O)NNC(=O)OC(C)(C)C)c1ccccc1` (stereo not drawn), the TGI in [1], in [2], in assay [3], in [5], in [6] and in assay [7] was over 100 µM throughout. Further, the TGI in [8], in assay [9] and in assay [10] was over 100 µM throughout.

On to `CCCCCCCC(=O)N1C2CC3CCC2(CS1(=O)=O)C3(C)C` (stereo not drawn), for which the TGI is over 100 µM in assay [1]; over 100 µM in assay [2]; over 100 µM in [3]; 44.8 µM in [4]; 61.6 µM in assay [5]; over 100 µM in [6]. In addition, the TGI in assay [7] is over 100 µM; in assay [8], 52.4 µM; in [9] it was over 10 µM; in assay [10] it was 35.8 µM.

As to `CC(=O)OCC1OC(Sc2nc(-c3ccccc3)c(C#N)c(=O)n2C2OC(COC(C)=O)C(OC(C)=O)C(OC(C)=O)C2OC(C)=O)C(OC(C)=O)C(OC(C)=O)C1OC(C)=O` (stereo not drawn), the TGI in [1], in assay [2], in assay [3], in [5], in assay [6] and in [7] was over 100 µM each time. Further, the TGI in [8], in assay [9] and in assay [10] was over 100 µM in each case.

For `CCOC(=O)c1nc2ccccc2nc1Oc1ccc(F)cc1`, the TGI in [1], in [2], in assay [3], in assay [4], in assay [5] and in assay [6] was over 100 µM in each case. Also, the TGI in assay [7], in assay [8], in assay [9] and in [10] was over 100 µM in each case.

`O=C1OCC2=C1C(c1ccc(Cl)cc1)c1cc3c(cc1O2)OCO3` (stereo not drawn): the TGI is over 100 µM in assay [1]; 5.31 µM in [2]; over 72.2 µM in [3]; over 100 µM in assay [4]; over 100 µM in [5]; over 100 µM in [6]. Moreover, the TGI in assay [7] is over 100 µM; in [8], over 100 µM; in [9] it was over 100 µM; in assay [10], over 27.2 µM.

Regarding `COc1ccc(Cc2nc3cc(C(F)(F)F)ccc3n2C[C@@H]2CCCN3CCCCC23)cc1` (stereo partly drawn), the TGI is 27.7 µM in [1]; 26.8 µM in assay [2]; 65.9 µM in assay [3]; over 44.5 µM in assay [4]; over 62.1 µM in assay [5]; 27.6 µM in assay [6]. Also, the TGI in [7] stood at 22.5 µM; in assay [8], 0.166 µM; in [9], 12.8 µM; in assay [10], 26.2 µM.

With `CC(=O)OCCn1c(Cc2ccc(Cl)cc2)nn(C(C)=O)c1=O`, the TGI in assay [1], in assay [2], in [3], in assay [4], in assay [5] and in [6] was over 100 µM in each case. The TGI in assay [7], in [8], in [9] and in assay [10] was over 100 µM each time.

With `COc1ccc(N(c2ccc(C#N)cc2)c2ccc(C#N)cc2)cc1`, the TGI in assay [1], in assay [2], in assay [3], in [4], in [5] and in [6] was over 100 µM throughout. The TGI in assay [7], in assay [8], in assay [9] and in assay [10] was over 100 µM in each case.

On to `COc1cc(CCNC2=CC(=O)c3ncccc3C2=O)ccc1O`, for which the TGI in assay [1] was 37.9 µM; in assay [2] it was 2.84 µM; in assay [3] it was 15.6 µM; in [4] it was over 100 µM; in [5], 12.1 µM; in assay [6] it was 4.09 µM. Besides, the TGI was determined as 29 µM in assay [7], 17.3 µM in assay [8], 5.97 µM in [9] and 6.06 µM in [10].

As for `N#Cc1nc(CCC(C(=O)O)N2C(=O)c3ccccc3C2=O)oc1N` (stereo not drawn), the TGI in assay [1], in [2], in assay [3], in assay [4], in assay [5] and in [6] was over 100 µM each time. The TGI in [7], in assay [8], in assay [9] and in assay [10] was over 100 µM each time.

With `COc1cc(Nc2nc(NS(=O)(=O)c3cc(C)c(Cl)cc3S)n[nH]2)cc(OC)c1OC`, the TGI in assay [1], in [2], in assay [3], in assay [4], in assay [5] and in [6] was over 100 µM in each case. Also, the TGI in [7], in assay [8], in assay [9] and in assay [10] was over 100 µM throughout.

As to `O=C1C(CN2CCCC2)CCC1CN1CCCC1` (stereo not drawn), the TGI in assay [1] was over 82.7 µM; in [2], 32.9 µM; in [3] it was 55.7 µM; in [4] it was over 60.1 µM; in assay [5], 11 µM; in assay [6] it was 33.9 µM. The TGI in assay [7] came to 29.3 µM; in assay [8], 32.1 µM; in assay [9], 32.1 µM; in assay [10], 39.3 µM.

For `C[C@@H](NC(=O)Nc1cccc(C(=O)Nc2cc(C(C)(C)C)ccc2C(=O)O)n1)c1ccccc1`, the TGI in [1], in [2], in assay [3], in [5], in [6] and in assay [7] was over 100 µM each time. Also, the TGI in assay [8] is over 100 µM; in assay [9] it was 51.1 µM; in assay [10], 47.9 µM.

`COC(=O)[C@]1(CCC(C)=O)C(=O)C=CN([C@H](C)c2ccccc2)[C@@H]1Cc1ccc(OC)c(OCc2ccccc2)c1I`: the TGI in assay [1] was over 100 µM; in assay [2] it was 42.9 µM; in assay [3], 79.4 µM; in assay [4] it was over 100 µM; in assay [5], over 100 µM; in assay [6], over 100 µM. Further, the TGI in [7] is 71.8 µM; in [8] it was 31.6 µM; in [9], 31 µM; in [10] it was 46.2 µM.

With `Cc1cccc2c(=O)c3cccc(CC(=O)O)c3oc12`, the TGI in [1], in [2], in [3], in [4], in assay [5] and in assay [6] was over 100 µM in each case. The TGI in assay [7], in assay [8], in assay [9] and in assay [10] was over 100 µM throughout.

Take `CCOC(=O)c1c2ccccc2n2c(=O)n(-c3ccccc3)nnc12`: the TGI in assay [1] was over 100 µM; in assay [2], over 100 µM; in assay [3], over 100 µM; in [4], over 69.5 µM; in [5], over 100 µM; in [6], over 100 µM. In addition, the TGI in [7], in assay [8], in [9] and in assay [10] was over 100 µM in each case.

As to `O=[N+]([O-])c1cccc(-c2ccc([C@H]3CC(c4ccc(Cl)cc4)=NN3)o2)c1`, the TGI in assay [1] was over 100 µM; in assay [2], 54.4 µM; in [3] it was over 100 µM; in assay [4] it was 90.8 µM; in [5], over 100 µM; in [7], 34.4 µM. For the same molecule, the figures for the TGI in [8], in assay [9] and in assay [10] were 40.9 µM, 43.3 µM and over 100 µM, respectively.

Consider `O=C(O)c1ccc2nc(-c3ccccn3)c(-c3ccccn3)nc2c1`, for which the TGI in [1], in [2], in [3], in [4], in assay [5] and in assay [6] was over 100 µM throughout. In addition, the TGI in [7], in assay [8] and in assay [10] was over 100 µM throughout.

For the molecule `COc1ccc2c(c1)SC1=Nc3sc4cc(OC)ccc4[n+]3CN12`, the TGI in [1], in [2], in [3], in assay [4], in assay [5] and in assay [7] was over 100 µM in each case. Further, the TGI in [8] is over 100 µM; in assay [9] it was 21.5 µM; in assay [10] it was 31.4 µM.

`COCc1nc(C#N)c(N)o1`: the TGI in assay [1], in [2], in [3], in assay [4], in assay [5] and in assay [6] was over 10 µM each time. The TGI in assay [7], in [8] and in [10] was over 10 µM each time.

Take `CC(C(=O)NCNC(=O)c1ccccc1)C(=O)NCc1ccccc1` (stereo not drawn): the TGI in [1], in assay [2], in assay [3], in assay [4], in assay [5] and in assay [7] was over 100 µM each time. Further, the TGI in assay [8] and in assay [10] was over 100 µM throughout.

On to `COc1ccc(CC(COS(=O)(=O)c2ccc(C)cc2)NS(=O)(=O)c2ccc(C)cc2)cc1` (stereo not drawn), for which the TGI in assay [1] stood at 31.6 µM; in [2] it was 28.5 µM; in [3], 58.8 µM; in assay [5], 27 µM; in assay [6], 35.2 µM; in assay [7] it was 49.2 µM. For the same molecule, the TGI in assay [8] is 40.2 µM; in assay [9], 27.8 µM; in assay [10] it was over 69.7 µM.

In the case of `O=C1C/C(=C\c2ccccc2)C(=O)c2ccccc2N1`, the TGI in assay [1] is 48.5 µM; in [2] it was 42.7 µM; in assay [3], over 100 µM; in assay [4] it was 49.8 µM; in assay [5], 40.7 µM; in assay [6] it was 55.8 µM. Besides, the TGI in assay [7] was 58.4 µM; in assay [9], 50.5 µM; in assay [10] it was over 100 µM.

Regarding `O=C(NNC(=O)c1cc2ccccc2[nH]1)c1cc2ccccc2[nH]1`, the TGI in [1], in assay [2], in assay [3], in assay [4], in assay [5] and in assay [6] was over 100 µM in each case. The TGI in assay [8], in assay [9] and in assay [10] was over 100 µM throughout.
